Test results reported in patent US20250367332A1, “PSMA-TARGETED RADIOACTIVE METAL COMPLEX CONTAINING NITROAROMATIC HETEROCYCLIC GROUP AND PREPARATION METHOD” (BEIJING NORMAL UNIVERSITY, priority 2023, published 2025).

System: 22RV1-FOLH1-oe cells
Test: In vitro cell uptake of 68Ga complexes over time in 22RV1-FOLH1-oe cells
Format: cell-based
Settings: for uptake-time profile (course of cellular uptake with prolonged incubation time): 37 KBq, 37° C., 15-120 minutes
Procedure: (§1) […] A 500 μL aliquot was added to each well of six 12-well plates. Each group of wells was treated with 37 KBq of [^68Ga]Ga-AAZTA-NI-PSMA, [^68Ga]Ga-AAZTA-NI-PSMA-11, and [^68Ga]Ga-HBED-CC-PSMA-11 solution. Incubation proceeded at 37° C. At 15, 30, 60, 90, and 120 minutes, uptake was terminated with PBS. Cells were lysed with 1 M NaOH, and lysates were absorbed onto filter paper for radioactivity measurement in plastic tubes. Blocking was performed at 60 minutes using excess unlabeled PSMA-11. After incubation, uptake was terminated with PBS, cells were lysed with 1 M NaOH, and lysates were absorbed onto filter paper for radioactivity measurement in plastic tubes.
(§2) 22RV1-FOLH1-oe cells were suspended at a density of 1.5×10^5 cells/mL. A 500 μL aliquot was added to each well of six 12-well plates. Each group of wells was treated with 37 KBq of [^68Ga]Ga-AAZTA-NI-PSMA, [^68Ga]Ga-DOTA-NI-PSMA, [^68Ga]Ga-HBED-CC-NI-PSMA, and [^68Ga]Ga-HBED-CC-PSMA-11 solution. Incubation proceeded at 37° C. At 15, 30, 60, 90, and 120 minutes, uptake was terminated with PBS. Cells were lysed with 1 M NaOH, and lysates were absorbed onto filter paper for radioactivity measurement in plastic tubes. Blocking was performed at 60 minutes using excess unlabeled PSMA-11. After incubation, uptake was terminated with PBS, cells were lysed with 1 M NaOH, and lysates were absorbed onto filter paper for radioactivity measurement in plastic tubes.
as §1, with “three” for “six”, “[^68Ga]Ga-AAZTA-NI-PSMA-093” for “[^68Ga]Ga-AAZTA-NI-PSMA, [^68Ga]Ga-AAZTA-NI-PSMA-11,”
as §2, with “2×10^5” for “1.5×10^5”, “the following solutions: [^68Ga]Ga-HBED-CC-PSMA-11, [^68Ga]Ga-NI-HBED-CC-PSMA-11, [^68Ga]Ga-HBED-CC-PSMA-093,” for “[^68Ga]Ga-AAZTA-NI-PSMA, [^68Ga]Ga-DOTA-NI-PSMA, [^68Ga]Ga-HBED-CC-NI-PSMA,”, “[^68Ga]Ga-NI-HBED-CC-PSMA-093.” for “[^68Ga]Ga-HBED-CC-PSMA-11 solution.”

SMILES: O=C([O-])CN(CCN(CC(=O)[O-])Cc1cc(CCC(=O)NCCCCCC(=O)NCCCC[C@H](NC(=O)N[C@@H](CCC(=O)O)C(=O)O)C(=O)O)ccc1[O-])Cc1cc(CCC(=O)O)ccc1[O-].[68Ga+3].[OH3+] [[^68Ga]Ga-HBED-CC-PSMA-11]
- uptake-time profile (course of cellular uptake with prolonged incubation time) (Application Embodiment 1, 1×10^5 cells/mL, n=3 (FIG. 12)): initially increased and subsequently decreased
- cellular uptake compared with the other radioactive metal complexes (Application Embodiment 1, versus [^68Ga]Ga-AAZTA-NI-PSMA and [^68Ga]Ga-AAZTA-NI-PSMA-11, all time points): significantly higher
- uptake-time profile (course of cellular uptake with prolonged incubation time) (Application Embodiment 2, 1.5×10^5 cells/mL, n=3 (FIG. 14)): initially increased and subsequently decreased
- uptake-time profile (course of cellular uptake with prolonged incubation time) (Application Embodiment 3, 1×10^5 cells/mL, n=3 (FIG. 16)): initially increased and subsequently decreased
- uptake-time profile (course of cellular uptake with prolonged incubation time) (Application Embodiment 4, 2×10^5 cells/mL, n=3 (FIG. 18)): gradually increased
